pIC50: −log10 of the molar value.
Biological target: T1, Human eIF4E (Homo sapiens, UniProt P06730)
T1 construct: Human eIF4E (aa 28-217) with a C-terminal His-tag; made in house
Test: Human eIF4E/4G2 binding assay (TR-FRET)
Settings: eIF4E (aa 28-217) with biotin labeled 4G2 peptide
Procedure: Human eIF4E (aa 28-217) with a C-terminal His-tag was expressed in E. coli in inclusion bodies. The protein was solubilized with 8 M urea and purified under denaturing conditions using nickel-charged HisTrap HP columns (GE Healthcare). The purified protein was then refolded by diluting in 20 mM Hepes pH 7.0, 0.5 M NaCl, 1 mM DTT, 1 mM EDTA, 0.5 M arginine plus 6 M urea, and then dialyzing overnight into the same buffer without the urea. The protein was further dialyzed into 20 mM Hepes, pH 6.5, 50 mM NaCl, 1 mM EDTA, 1 mM DTT, and concentrated using Hitrap SP sepharose FF columns (GE Healthcare). The concentrated protein was dialyzed into 20 mM Hepes, pH 7.0, 0.5M NaCl, 5 mM DTT and 10% glycerol, and stored at −80° C. until use.
Test compounds (3.43 mM stock in DMSO) were diluted 2-fold in series in DMSO (10 concentration points). Compound solutions (1.2 μl/well) were added into black 384-well polypropylene microplates (Matrix, Thermal Scientific). Twenty-two microliters per well of Assay Buffer (50 mM NaPi, pH 6.5, 50 mM KCl, 1 mM DTT and 0.5 mg/ml gamma globulin) and eight microliters per well of 82.5 nM purified eIF4E in Assay Buffer were added. The samples were incubated at room temperature (20-23° C.) for 15 min. Biotin labeled 4G2 peptide (Ac-Lys-Gln-Tyr-Asp-Arg-Glu-Phe-Leu-Leu-Asp-Phe-Gln-Phe-Met-Pro-Lys(Aha-Bio)-NH2, 1.75 μM stock in DMSO) was diluted to 0.14 μM in Assay Buffer (without DTT) and 5 μl/well was added. The samples were incubated at room temperature for 15 min. Five microliters per well of 6.4 nM Eu-streptavidin (Eu-SA, Perkin Elmer) and 80 nM Allophycocyanin (APC)-anti His antibody (Columbia Biosciences) in Assay Buffer (without DTT) were then added and the samples were incubated at room temperature for 20 min.
Assay signals were monitored by reading excitation at 340 nm and emission fluorescence at 615 nm and 665 nm on an Envision reader (Perkin Elmer). Normalized TR-FRET (time-resolved fluorescence resonance energy transfer) assay signal (Rn) was calculated by the formula: Rn═[(A−Ba−C×D)/(D−Bd)]×(Dc−Bd) • Where A is the fluorescence intensity of the sample at 665 nm, • D is the fluorescence intensity of the sample at 615 nm, • Ba and Bd are plate backgrounds at 665 nm and 615 nm, respectively, • Dc is the fluorescence intensity of 0.78 nM Eu-SA in the assay buffer at 615 nm • The cross-talk factor (C) is determined by the following formula: C=(Ac−Ba)/(Dc−Bd) • Where Ac is the fluorescence intensity of 0.78 nM Eu-SA in the assay buffer at 665 nm.
IC50 values were calculated using xLFit program (IDBS).

T1 sequence (P06730 28-217): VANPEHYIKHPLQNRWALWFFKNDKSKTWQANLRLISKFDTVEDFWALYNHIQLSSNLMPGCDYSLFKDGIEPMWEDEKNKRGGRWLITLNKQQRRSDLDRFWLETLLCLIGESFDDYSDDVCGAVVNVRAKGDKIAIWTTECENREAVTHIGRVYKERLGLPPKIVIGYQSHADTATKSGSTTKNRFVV

pIC50 | Structure (SMILES)
> 5.30 | O=C(O)C1(CNc2nc(-c3ccc(-c4ccc(F)cc4)cc3)c(-c3ccccc3)s2)CC1 [Compound I-122]
< 4.60 | O=C(O)C1(CNc2nc(-c3ccc(-c4ccc(F)cc4)cc3)c(-c3cncnc3)s2)CC1 [Compound I-123]
< 4.60 | O=C(O)C1(CNc2nc(-c3ccc(-c4ccc(F)cc4)cc3)c(-c3cccnc3)s2)CC1 [Compound I-124]
> 5.30 | O=C(O)C1(CNc2nc(-c3ccc(-c4ccc(F)cc4)cc3)c(-c3cccc4[nH]ccc34)s2)CC1 [Compound I-125]
< 4.60 | O=C(O)C1CC(CNc2nc(-c3ccc(-c4ccc(F)cc4)cc3)cs2)C1 (stereo not drawn) [Compound I-126]
4.60 to 5.30 | O=C(O)C1CC(CNc2nc(-c3ccc(-c4ccc(F)cc4)cc3)c(Br)s2)C1 (stereo not drawn) [Compound I-127]
> 5.30 | O=C(O)C1CC(CNc2nc(-c3ccc(-c4ccc(F)cc4)cc3)c(-c3ccccc3)s2)C1 (stereo not drawn) [Compound I-128]
< 4.60 | O=C(O)C1CC(CNc2nc(-c3ccc(-c4ccc(F)cc4)cc3)c(-c3cncnc3)s2)C1 (stereo not drawn) [Compound I-129]
< 4.60 | O=C(O)C1CC(CNc2nc(-c3ccc(-c4ccc(F)cc4)cc3)c(-c3cccnc3)s2)C1 (stereo not drawn) [Compound I-130]
4.60 to 5.30 | O=C(O)C1CC(CNc2nc(-c3ccc(-c4ccc(F)cc4)cc3)c(-c3cccc4[nH]ccc34)s2)C1 (stereo not drawn) [Compound I-131]
> 5.30 | O=C(O)C1CCN(c2nc(-c3ccc(-c4ccc(F)cc4)cc3)c(-c3ccccc3)s2)CC1 [Compound I-136]
< 4.60 | O=C(O)C1CCN(c2nc(-c3ccc(-c4ccc(F)cc4)cc3)c(-c3cncnc3)s2)CC1 [Compound I-137]
4.60 to 5.30 | O=C(O)C1CCN(c2nc(-c3ccc(-c4ccc(F)cc4)cc3)c(-c3cccnc3)s2)CC1 [Compound I-138]
4.60 to 5.30 | O=C(O)C1CCN(c2nc(-c3ccc(-c4ccc(F)cc4)cc3)c(-c3cccc4[nH]ccc34)s2)CC1 [Compound I-139]
> 5.30 | O=C(O)C1CN(c2nc(-c3ccc(-c4ccc(F)cc4)cc3)c(-c3ccccc3)s2)CCO1 (stereo not drawn) [Compound I-140]
< 4.60 | O=C(O)C1CN(c2nc(-c3ccc(-c4ccc(F)cc4)cc3)c(-c3cncnc3)s2)CCO1 (stereo not drawn) [Compound I-141]
< 4.60 | O=C(O)C1CN(c2nc(-c3ccc(-c4ccc(F)cc4)cc3)c(-c3cccnc3)s2)CCO1 (stereo not drawn) [Compound I-142]
> 5.30 | O=C(O)C1CN(c2nc(-c3ccc(-c4ccc(F)cc4)cc3)c(-c3cccc4[nH]ccc34)s2)CCO1 (stereo not drawn) [Compound I-143]
> 5.30 | CC1(C(=O)O)CCCN(c2nc(-c3ccc(-c4ccc(F)cc4)cc3)c(-c3ccccc3)s2)C1 (stereo not drawn) [Compound I-144]
< 4.60 | CC1(C(=O)O)CCCN(c2nc(-c3ccc(-c4ccc(F)cc4)cc3)c(-c3cncnc3)s2)C1 (stereo not drawn) [Compound I-145]

pIC50 | Structure (SMILES)
4.60 to 5.30 | CC1(C(=O)O)CCCN(c2nc(-c3ccc(-c4ccc(F)cc4)cc3)c(-c3cccnc3)s2)C1 (stereo not drawn) [Compound I-146]
> 5.30 | CC1(C(=O)O)CCCN(c2nc(-c3ccc(-c4ccc(F)cc4)cc3)c(-c3cccc4[nH]ccc34)s2)C1 (stereo not drawn) [Compound I-147]
< 4.60 | CC(C)C(CC(=O)O)Nc1nc(-c2ccc(Oc3ccccc3)cc2)cs1 (stereo not drawn) [Compound I-148]
4.60 to 5.30 | CC(C)C(CC(=O)O)Nc1nc(-c2ccc(Oc3ccccc3)cc2)c(-c2ccccc2)s1 (stereo not drawn) [Compound I-149]
< 4.60 | CC(C)(CC(=O)O)Nc1nc(-c2ccc(Oc3ccccc3)cc2)c(-c2cncnc2)s1 [Compound I-150]
< 4.60 | CC(C)C(CC(=O)O)Nc1nc(-c2ccc(Oc3ccccc3)cc2)c(-c2cccnc2)s1 (stereo not drawn) [Compound I-151]
4.60 to 5.30 | CC(C)C(CC(=O)O)Nc1nc(-c2ccc(Oc3ccccc3)cc2)c(-c2cccc3[nH]ccc23)s1 (stereo not drawn) [Compound I-152]
< 4.60 | CC(C)(CNc1nc(-c2ccc(Oc3ccccc3)cc2)cs1)C(=O)O [Compound I-153]
> 5.30 | CC(C)(CNc1nc(-c2ccc(Oc3ccccc3)cc2)c(-c2ccccc2)s1)C(=O)O [Compound I-154]
< 4.60 | CC(C)(CNc1nc(-c2ccc(Oc3ccccc3)cc2)c(-c2cncnc2)s1)C(=O)O [Compound I-155]
< 4.60 | CC(C)(CNc1nc(-c2ccc(Oc3ccccc3)cc2)c(-c2cccnc2)s1)C(=O)O [Compound I-156]
4.60 to 5.30 | CC(C)(CNc1nc(-c2ccc(Oc3ccccc3)cc2)c(-c2cccc3[nH]ccc23)s1)C(=O)O [Compound I-157]
> 5.30 | O=C(O)C1CN(c2nc(-c3ccc(Oc4ccccc4)cc3)c(-c3ccccc3)s2)C1 [Compound I-158]
< 4.60 | O=C(O)C1CN(c2nc(-c3ccc(Oc4ccccc4)cc3)c(-c3cncnc3)s2)C1 [Compound I-159]
< 4.60 | O=C(O)C1CN(c2nc(-c3ccc(Oc4ccccc4)cc3)c(-c3cccnc3)s2)C1 [Compound I-160]
4.60 to 5.30 | O=C(O)C1CN(c2nc(-c3ccc(Oc4ccccc4)cc3)c(-c3cccc4[nH]ccc34)s2)C1 [Compound I-161]
< 4.60 | CC1(C(=O)O)CN(c2nc(-c3ccc(Oc4ccccc4)cc3)cs2)C1 [Compound I-162]
4.60 to 5.30 | CC1(C(=O)O)CN(c2nc(-c3ccc(Oc4ccccc4)cc3)c(-c3ccccc3)s2)C1 [Compound I-163]
< 4.60 | CC1(C(=O)O)CN(c2nc(-c3ccc(Oc4ccccc4)cc3)c(-c3cncnc3)s2)C1 [Compound I-164]
< 4.60 | CC1(C(=O)O)CN(c2nc(-c3ccc(Oc4ccccc4)cc3)c(-c3cccnc3)s2)C1 [Compound I-165]

pIC50 | Structure (SMILES)
4.60 to 5.30 | CC1(C(=O)O)CN(c2nc(-c3ccc(Oc4ccccc4)cc3)c(-c3cccc4[nH]ccc34)s2)C1 [Compound I-166]
< 4.60 | CCCC(CNc1nc(-c2ccc(Oc3ccccc3)cc2)cs1)C(=O)O (stereo not drawn) [Compound I-167]
> 5.30 | CCCC(CNc1nc(-c2ccc(Oc3ccccc3)cc2)c(-c2ccccc2)s1)C(=O)O (stereo not drawn) [Compound I-168]
< 4.60 | CCCC(CNc1nc(-c2ccc(Oc3ccccc3)cc2)c(-c2cncnc2)s1)C(=O)O (stereo not drawn) [Compound I-169]
< 4.60 | CCCC(CNc1nc(-c2ccc(Oc3ccccc3)cc2)c(-c2cccnc2)s1)C(=O)O (stereo not drawn) [Compound I-170]
4.60 to 5.30 | CCCC(CNc1nc(-c2ccc(Oc3ccccc3)cc2)c(-c2cccc3[nH]ccc23)s1)C(=O)O (stereo not drawn) [Compound I-171]
4.60 to 5.30 | CC(CC(=O)O)Nc1nc(-c2ccc(Oc3ccccc3)cc2)c(-c2ccccc2)s1 (stereo not drawn) [Compound I-172]
< 4.60 | CC(CC(=O)O)Nc1nc(-c2ccc(Oc3ccccc3)cc2)c(-c2cncnc2)s1 (stereo not drawn) [Compound I-173]
< 4.60 | CC(CC(=O)O)Nc1nc(-c2ccc(Oc3ccccc3)cc2)c(-c2cccnc2)s1 (stereo not drawn) [Compound I-174]
< 4.60 | CC(CC(=O)O)Nc1nc(-c2ccc(Oc3ccccc3)cc2)c(-c2cccc3[nH]ccc23)s1 (stereo not drawn) [Compound I-175]
< 4.60 | CC(CNc1nc(-c2ccc(Oc3ccccc3)cc2)cs1)C(=O)O (stereo not drawn) [Compound I-176]
4.60 to 5.30 | CC(CNc1nc(-c2ccc(Oc3ccccc3)cc2)c(-c2ccccc2)s1)C(=O)O (stereo not drawn) [Compound I-177]
< 4.60 | CC(CNc1nc(-c2ccc(Oc3ccccc3)cc2)c(-c2cncnc2)s1)C(=O)O (stereo not drawn) [Compound I-178]
< 4.60 | CC(CNc1nc(-c2ccc(Oc3ccccc3)cc2)c(-c2cccnc2)s1)C(=O)O (stereo not drawn) [Compound I-179]
< 4.60 | CC(CNc1nc(-c2ccc(Oc3ccccc3)cc2)c(-c2cccc3[nH]ccc23)s1)C(=O)O (stereo not drawn) [Compound I-180]
< 4.60 | O=C(O)C1CCCN(c2nc(-c3ccc(Oc4ccccc4)cc3)cs2)C1 (stereo not drawn) [Compound I-181]
> 5.30 | O=C(O)C1CCCN(c2nc(-c3ccc(Oc4ccccc4)cc3)c(-c3ccccc3)s2)C1 (stereo not drawn) [Compound I-182]
< 4.60 | O=C(O)C1CCCN(c2nc(-c3ccc(Oc4ccccc4)cc3)c(-c3cncnc3)s2)C1 (stereo not drawn) [Compound I-183]
< 4.60 | O=C(O)C1CCCN(c2nc(-c3ccc(Oc4ccccc4)cc3)c(-c3cccnc3)s2)C1 (stereo not drawn) [Compound I-184]
> 5.30 | O=C(O)C1CCCN(c2nc(-c3ccc(Oc4ccccc4)cc3)c(-c3cccc4[nH]ccc34)s2)C1 (stereo not drawn) [Compound I-185]
